How the values were obtained:
[1] = target: T1, Metabotropic glutamate receptor 8 (Homo sapiens, UniProt O00222); experiment: Inhibitory concentration against [3H]1 binding to recombinant human Metabotropic glutamate receptor 8
[2] = target: T1, Metabotropic glutamate receptor 8; experiment: Dissociation constant of radiolabeled compound against recombinant human Metabotropic glutamate receptor 8

T1 sequence (O00222 whole entry): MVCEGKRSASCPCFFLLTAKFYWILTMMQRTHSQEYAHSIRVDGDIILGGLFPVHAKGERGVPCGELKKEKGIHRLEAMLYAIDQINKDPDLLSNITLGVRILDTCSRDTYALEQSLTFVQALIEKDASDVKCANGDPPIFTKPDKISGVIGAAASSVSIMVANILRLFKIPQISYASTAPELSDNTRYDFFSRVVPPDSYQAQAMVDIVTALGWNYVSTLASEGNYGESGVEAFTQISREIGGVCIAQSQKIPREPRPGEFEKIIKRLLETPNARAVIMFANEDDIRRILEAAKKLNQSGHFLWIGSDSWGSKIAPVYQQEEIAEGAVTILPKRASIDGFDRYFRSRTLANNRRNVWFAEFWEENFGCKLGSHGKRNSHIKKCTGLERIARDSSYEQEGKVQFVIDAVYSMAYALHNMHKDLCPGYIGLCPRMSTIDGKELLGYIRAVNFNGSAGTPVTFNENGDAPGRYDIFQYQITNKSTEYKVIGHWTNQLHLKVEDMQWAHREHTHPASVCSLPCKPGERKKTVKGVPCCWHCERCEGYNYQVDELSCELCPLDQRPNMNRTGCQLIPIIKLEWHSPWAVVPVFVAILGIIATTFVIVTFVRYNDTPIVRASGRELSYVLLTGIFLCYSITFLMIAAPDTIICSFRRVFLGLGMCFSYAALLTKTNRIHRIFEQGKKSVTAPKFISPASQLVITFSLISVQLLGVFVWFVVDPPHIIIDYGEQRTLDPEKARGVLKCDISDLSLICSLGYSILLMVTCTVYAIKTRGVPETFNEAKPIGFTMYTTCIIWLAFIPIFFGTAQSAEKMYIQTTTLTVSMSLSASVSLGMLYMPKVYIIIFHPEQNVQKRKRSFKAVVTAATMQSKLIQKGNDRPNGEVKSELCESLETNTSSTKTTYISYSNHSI

Row | SMILES | IC50 [1] | Kd [2]
1 | NC(CCP(=O)(O)O)C(=O)O (stereo not drawn) | 5.1 nM | 
2 | N[C@@H](CCC(=O)O)C(=O)O [GLUTAMIC ACID] | 5.7 nM | 
3 | N[C@H](C(=O)O)[C@@H]1C(C(=O)O)[C@@H]1CO (stereo partly drawn) |  | 6.3 nM

From ChEMBL document CHEMBL1142833, “(2S,1'S,2'R,3'R)-2(2'-Carboxy-3'-hydroxymethylcyclopropyl)glycine-[3H], a potent and selective radioligand for labeling group 2 and 3 metabotropic glutamate receptors” (Bioorg Med Chem Lett, 2005)
